# Reference: publication PMC8286840, “Identifying SARS-CoV-2 antiviral compounds by screening for small molecule inhibitors of Nsp3 papain-like protease” (Biochemical Journal, 2021)
# Structures can show the parent of a compound that is named as a salt. Where two headings read alike, the source gives them in different places.
# What was measured:
# [1] = molecular target: T1, SARS-CoV-2 PLpro (nsp3 1564–1878) (Severe acute respiratory syndrome coronavirus 2, UniProt P0DTD1); experiment: biochemical; parameters: FRET-quenched peptide (Pro3) cleavage by PLpro, 10 min pre-incubation, slope over 20 min, normalised to no-compound control; settings: high concentration screen, read-out: % of control remaining
# [2] = molecular target: T1, SARS-CoV-2 PLpro (nsp3 1564–1878); experiment: biochemical; parameters: FRET-quenched peptide (Pro3) cleavage by PLpro, 10 min pre-incubation, slope over 20 min, normalised to no-compound control; settings: low concentration screen, read-out: % of control remaining
structure (smiles),measurement,setting,value
Nc1c(Br)cc(Br)cc1CN[C@H]1CC[C@H](O)CC1 [Ambroxol],remaining activity at 3.75 µM,[1]; Well no.=1614,101%
same,remaining activity at 3.75 µM,[1]; Well no.=3892,97.9%
same,remaining activity at 1.25 µM,[2]; Well no.=1614,102%
same,remaining activity at 1.25 µM,[2]; Well no.=3892,98.1%
COc1cc(N)cn[n+]1-c1ccccc1 [Amezinium (methylsulfate)],remaining activity at 3.75 µM,[1]; Well no.=6567,104%
same,remaining activity at 1.25 µM,[2]; Well no.=6567,106%
CCn1cc(C(=O)O)c(=O)c2ccc(Cc3ccccc3)nc21 [Amfonelic acid],remaining activity at 3.75 µM,[1]; Well no.=446,98.5%
same,remaining activity at 1.25 µM,[2]; Well no.=446,98.4%
NCCCNCCSP(=O)(O)O [Amifostine],remaining activity at 3.75 µM,[1]; Well no.=115,104%
same,remaining activity at 3.75 µM,[1]; Well no.=2115,102%
same,remaining activity at 1.25 µM,[2]; Well no.=115,103%
same,remaining activity at 1.25 µM,[2]; Well no.=2115,99.3%
NCC[C@H](O)C(=O)N[C@@H]1C[C@H](N)[C@@H](O[C@H]2O[C@H](CN)[C@@H](O)[C@H](O)[C@H]2O)[C@H](O)[C@H]1O[C@H]1O[C@H](CO)[C@@H](O)[C@H](N)[C@H]1O [Amikacin hydrate],remaining activity at 3.75 µM,[1]; Well no.=5355,101%
same,remaining activity at 1.25 µM,[2]; Well no.=5355,97.3%
NCC[C@H](O)C(=O)N[C@@H]1C[C@H](N)[C@@H](O[C@H]2O[C@H](CN)[C@@H](O)[C@H](O)[C@H]2O)[C@H](O)[C@H]1O[C@H]1O[C@H](CO)[C@@H](O)[C@H](N)[C@H]1O [Amikacin sulfate],remaining activity at 3.75 µM,[1]; Well no.=5313,99.9%
same,remaining activity at 1.25 µM,[2]; Well no.=5313,107%
N=C(N)NC(=O)c1nc(Cl)c(N)nc1N [Amiloride HCl dihydrate],remaining activity at 3.75 µM,[1]; Well no.=5290,100%
same,remaining activity at 1.25 µM,[2]; Well no.=5290,101%
N=C(N)NC(=O)c1nc(Cl)c(N)nc1N [Amiloride hydrochloride],remaining activity at 3.75 µM,[1]; Well no.=148,94.6%
same,remaining activity at 1.25 µM,[2]; Well no.=148,96.9%
N=C(N)NC(=O)c1nc(Cl)c(N)nc1N [Amiloride],remaining activity at 3.75 µM,[1]; Well no.=1709,99%
same,remaining activity at 1.25 µM,[2]; Well no.=1709,102%
CN1[C@@H]2CC[C@H]1C[C@@H](OC(c1ccccc1)c1ccccc1N)C2 (stereo partly drawn) [Aminobenztropine],remaining activity at 3.75 µM,[1]; Well no.=206,98.3%
same,remaining activity at 1.25 µM,[2]; Well no.=206,97.2%
NN=C(N)N [Aminoguanidine hemisulfate],remaining activity at 3.75 µM,[1]; Well no.=213,96.8%
same,remaining activity at 1.25 µM,[2]; Well no.=213,95.8%
N=C(N)NN [Aminoguanidine hydrochloride],remaining activity at 3.75 µM,[1]; Well no.=104,94.6%
same,remaining activity at 1.25 µM,[2]; Well no.=104,93%
Cn1c(=O)c2[nH]cnc2n(C)c1=O [Aminophylline],remaining activity at 3.75 µM,[1]; Well no.=1542,103%
same,remaining activity at 1.25 µM,[2]; Well no.=1542,101%
Nc1nc(N)c2nc(CNc3ccc(C(=O)N[C@@H](CCC(=O)O)C(=O)O)cc3)cnc2n1 [Aminopterin],remaining activity at 3.75 µM,[1]; Well no.=153,104%
same,remaining activity at 1.25 µM,[2]; Well no.=153,101%
CC(C)[C@H](CO)Nc1nc(Nc2cc(N)cc(Cl)c2)c2ncn(C(C)C)c2n1 [Aminopurvalanol A - (2R)-2-[[6-[(3-Amino-5-chlorophenyl)amino]-9-(1-methylethyl)-9H-purin-2-yl]amino]-3-methyl-1-butanol],remaining activity at 3.75 µM,[1]; Well no.=2484,108%
same,remaining activity at 1.25 µM,[2]; Well no.=2484,101%
CC(C)[C@H](CO)Nc1nc(Nc2cc(N)cc(Cl)c2)c2ncn(C(C)C)c2n1 [Aminopurvalanol A],remaining activity at 3.75 µM,[1]; Well no.=2322,97.4%
same,remaining activity at 1.25 µM,[2]; Well no.=2322,97.1%
CCCCc1oc2ccccc2c1C(=O)c1cc(I)c(OCCN(CC)CC)c(I)c1 [Amiodarone hydrochloride],remaining activity at 3.75 µM,[1]; Well no.=198,98.7%
same,remaining activity at 1.25 µM,[2]; Well no.=198,97%
CCCCc1oc2ccccc2c1C(=O)c1cc(I)c(OCCN(CC)CC)c(I)c1 [Amiodarone.HCl],remaining activity at 3.75 µM,[1]; Well no.=1591,103%
same,remaining activity at 1.25 µM,[2]; Well no.=1591,104%
CN(C)CCCO[C@@H]1[C@H]2OC(C)(C)O[C@H]2O[C@@H]1[C@H](O)CO [Amiprilose hydrochloride],remaining activity at 3.75 µM,[1]; Well no.=207,103%
same,remaining activity at 1.25 µM,[2]; Well no.=207,101%
CCN1CCCC1CNC(=O)c1cc(S(=O)(=O)CC)c(N)cc1OC (stereo not drawn) [Amisulpride],remaining activity at 3.75 µM,[1]; Well no.=2275,97.7%
same,remaining activity at 3.75 µM,[1]; Well no.=8149,107%
same,remaining activity at 1.25 µM,[2]; Well no.=2275,93.3%
same,remaining activity at 1.25 µM,[2]; Well no.=8149,107%
CN(C)CCC=C1c2ccccc2CCc2ccccc21 [Amitriptyline hydrochloride],remaining activity at 3.75 µM,[1]; Well no.=150,98.5%
same,remaining activity at 1.25 µM,[2]; Well no.=150,103%
CN(C)CCC=C1c2ccccc2CCc2ccccc21 [Amitriptyline.HCl],remaining activity at 3.75 µM,[1]; Well no.=2122,104%
same,remaining activity at 1.25 µM,[2]; Well no.=2122,102%
CCOC(=O)C1=C(COCCN)NC(C)=C(C(=O)OC)C1c1ccccc1Cl (stereo not drawn) [Amlodipine],remaining activity at 3.75 µM,[1]; Well no.=1711,99%
same,remaining activity at 1.25 µM,[2]; Well no.=1711,99.1%
CC1(C)[C@@H](O[C@H]2O[C@H](C(=O)O)[C@@H](O)[C@H](O)[C@H]2O[C@@H]2O[C@H](C(=O)O)[C@@H](O)[C@H](O)[C@H]2O)CC[C@]2(C)[C@H]3C(=O)C=C4[C@@H]5C[C@@](C)(C(=O)O)CC[C@]5(C)CC[C@@]4(C)[C@]3(C)CC[C@@H]12 [Ammonium Glycyrrhizinate],remaining activity at 3.75 µM,[1]; Well no.=8386,99%
same,remaining activity at 1.25 µM,[2]; Well no.=8386,97.7%
S=C(S)N1CCCC1 [Ammonium pyrrolidinedithiocarbamate],remaining activity at 3.75 µM,[1]; Well no.=1495,97.9%
same,remaining activity at 1.25 µM,[2]; Well no.=1495,102%
CCN(CC)Cc1cc(Nc2ccnc3cc(Cl)ccc23)ccc1O [Amodiaquine dihydrochloride dihydrate],remaining activity at 3.75 µM,[1]; Well no.=8396,106%
same,remaining activity at 1.25 µM,[2]; Well no.=8396,97.5%
CN(C)CCN1C(=O)c2cccc3cc(N)cc(c23)C1=O [Amonafide],remaining activity at 3.75 µM,[1]; Well no.=5195,96.7%
same,remaining activity at 1.25 µM,[2]; Well no.=5195,96.9%
CCC(C)(C)c1ccc(CC(C)CN2C[C@@H](C)O[C@@H](C)C2)cc1 (stereo partly drawn) [Amorolfine HCl],remaining activity at 3.75 µM,[1]; Well no.=5337,98.1%
same,remaining activity at 1.25 µM,[2]; Well no.=5337,98.1%
CCC(C)(C)c1ccc(CC(C)CN2C[C@@H](C)O[C@@H](C)C2)cc1 (stereo partly drawn) [Amorolfine],remaining activity at 3.75 µM,[1]; Well no.=1748,101%
same,remaining activity at 1.25 µM,[2]; Well no.=1748,99%
Clc1ccc2c(c1)C(N1CCNCC1)=Nc1ccccc1O2 [Amoxapine],remaining activity at 3.75 µM,[1]; Well no.=158,97.1%
same,remaining activity at 3.75 µM,[1]; Well no.=1690,103%
same,remaining activity at 1.25 µM,[2]; Well no.=158,97.7%
same,remaining activity at 1.25 µM,[2]; Well no.=1690,102%
CC1(C)S[C@@H]2[C@H](NC(=O)[C@H](N)c3ccc(O)cc3)C(=O)N2[C@H]1C(=O)O [Amoxicillin (sodium)],remaining activity at 3.75 µM,[1]; Well no.=8274,89.9%
same,remaining activity at 1.25 µM,[2]; Well no.=8274,91.5%
CC1(C)S[C@@H]2[C@H](NC(=O)[C@H](N)c3ccc(O)cc3)C(=O)N2[C@H]1C(=O)O [Amoxicillin (trihydrate)],remaining activity at 3.75 µM,[1]; Well no.=8222,96.8%
same,remaining activity at 1.25 µM,[2]; Well no.=8222,99.5%
